Measurements as given in US20240190838A1, “LZK-TARGETING DEGRADERS AND METHODS OF USE” (The U.S.A., as represented by the Secretary, Department of …, priority 2020, published 2024).

Assays:
[1] = Pharmacokinetics in female NSG mice; assay type: in vivo; details: single IP 50 mg/kg
Method: Drug concentrations in plasma and tissue samples were measured by a qualified UPLC-MS/MS method with a Waters Acquity I-Class UPLC interfaced with a Waters TQ-S mass spectrometer. The lower limit of quantitation (LLOQ) was 1 ng/mL for plasma and 1 ng/g tissue for liver, kidney, lung and brain. PK parameters were calculated using the non-compartmental method of the pharmacokinetic software package Phoenix WinNonlin, version 6.2 (Certara, St. Louis, MO). The area under the plasma concentration versus time curve (AUC) was calculated using the linear trapezoidal method. […] The apparent terminal half-life (t1/2) was calculated as 0.693/λ.
In vitro ADME properties of targeted degraders 3 and 7 were studied with the standard Tier I assays, i.e. kinetic solubility assay, parallel artificial membrane permeability assay (PAMPA) and rat liver microsomal (RLM) stability assay (Sun et al., Bioorg Med Chem 2019, 27(14):3110-4; Sun et al., Bioorg Med Chem 2017, 25(3):1266-76; Shah et al., Drug Metab Dispos 2016, 44(10):1653-61). The pharmacokinetics (PK) of targeted degraders 3 and 7 were determined in female NSG mice (The Jackson Laboratory; body weight range from 17-25 grams) after a single intraperitoneal injection of 50 mg/kg. […]

[2] = target: T1, LZK (Homo sapiens, UniProt O43283); test: In vitro kinase assay (LZK phosphorylation of MKK7); assay type: biochemical; design: purchased Carna Biosciences 09-114; details: 100 μM ATP
T1 sequence (O43283 1-966): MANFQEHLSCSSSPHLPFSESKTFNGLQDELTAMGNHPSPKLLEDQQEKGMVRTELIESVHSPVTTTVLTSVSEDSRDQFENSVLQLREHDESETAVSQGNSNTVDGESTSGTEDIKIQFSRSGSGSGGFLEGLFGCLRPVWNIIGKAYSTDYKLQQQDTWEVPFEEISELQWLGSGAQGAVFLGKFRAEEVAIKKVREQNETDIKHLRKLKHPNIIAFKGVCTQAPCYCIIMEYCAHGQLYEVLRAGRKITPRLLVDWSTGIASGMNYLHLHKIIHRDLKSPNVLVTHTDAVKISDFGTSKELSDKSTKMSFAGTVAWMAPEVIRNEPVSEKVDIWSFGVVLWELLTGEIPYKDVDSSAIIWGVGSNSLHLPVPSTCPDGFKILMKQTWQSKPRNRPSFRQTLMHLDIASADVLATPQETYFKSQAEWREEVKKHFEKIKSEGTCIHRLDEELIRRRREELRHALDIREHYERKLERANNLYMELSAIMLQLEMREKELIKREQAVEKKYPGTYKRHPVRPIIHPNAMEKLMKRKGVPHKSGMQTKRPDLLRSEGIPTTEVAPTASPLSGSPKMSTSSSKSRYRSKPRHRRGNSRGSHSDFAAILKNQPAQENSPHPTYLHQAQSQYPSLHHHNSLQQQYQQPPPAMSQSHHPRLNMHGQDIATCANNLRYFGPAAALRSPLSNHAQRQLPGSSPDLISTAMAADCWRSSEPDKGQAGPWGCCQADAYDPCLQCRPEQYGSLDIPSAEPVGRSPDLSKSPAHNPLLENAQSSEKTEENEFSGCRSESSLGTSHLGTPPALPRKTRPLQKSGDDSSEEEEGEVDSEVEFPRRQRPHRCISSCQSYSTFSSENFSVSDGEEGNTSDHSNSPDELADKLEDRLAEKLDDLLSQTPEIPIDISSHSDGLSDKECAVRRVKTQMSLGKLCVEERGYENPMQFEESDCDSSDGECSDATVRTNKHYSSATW
Method: The assay was performed with 100 μM ATP at 37° C. for 30 minutes. Following the addition of 4× reducing SDS sample buffer, proteins were resolved by sodium dodecyl sulfate-polyacrylamide gel electrophoresis (SDS-PAGE) and immunoblot analysis was performed as stated previously.

[3] = test system: MSK921 cells; test: Colony formation assay, MSK921; assay type: cell-based; details: 200 nM, 14 days; cells lacking amplified MAP3K13
Method: Crystal violet assays were used to assess relative cell growth and survival after treatment with specific compounds. In general, cells were plated in triplicate in 12-well plates for 24 hours before drug treatments were added using 10% FBS media. The plates were incubated for 14 days, with the media and drug being replaced every 48 hours. The cells were then washed with phosphate-buffered saline and fixed in ice-cold methanol before being stained with 0.5% crystal violet (Sigma-Aldrich) in 25% methanol. Images were taken using a ChemiDoc MP Imaging System (Bio Rad), and for quantification, the crystal violet stain was dissolved in 33% acetic acid, incubated for 20 minutes with shaking, and read at 595 nm using iMark™ Microplate Absorbance Reader (Bio-Rad). Graphs display percent colony formation relative to the DMSO-treated control sample.

| SMILES | tissue distribution and drug characteristics [1] | in vitro phosphorylation of MKK7 [2] | colony formation [3] |
| --- | --- | --- | --- |
| Cc1ncsc1-c1ccc([C@H](C)NC(=O)[C@@H]2C[C@@H](O)CN2C(=O)[C@@H](NC(=O)CCCCCCC(=O)N2CCC(c3cc(Nc4cc(C#N)ccn4)nc(N4CCC(F)(F)C4)c3)CC2)C(C)(C)C)cc1 [Compound 3] | variable tissue distribution and overall promising drug characteristics |  |  |
| N#Cc1ccnc(Nc2cc(C3CCN(C4COC4)CC3)cc(N3CCC(F)(F)C3)n2)c1 [GNE-3511] |  | decreased in vitro phosphorylation of MKK7 | only a minor reduction in colony formation |
